Measured values from patent US20250100998A1, “PARP7 INHIBITORS” (Gilead Sciences, Inc., priority 2023, published 2025).

What follows are molecules tested on STAT1 (phosphorylated at Tyr701) in NCI-H1373 cells (assay: Phospho-STAT1 (Tyr701) LANCE Ultra TR-FRET detection assay). Conditions: Homo sapiens, NCI-H1373, 48 h, induction of pSTAT1 in NCI-H1373 cells, 48 hours incubation; normalized to 10 uM positive control and DMSO; 4-parameter fit; read-out: NH1373 pSTAT1 EC50.
Assay type: cell-based
How it was run: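 Endogenous pSTAT1 (Tyr701) induction measured in NCI-H1373 cells seeded onto compound and incubated 48 h at 37 °C. Lysates assayed by LANCE Ultra sandwich TR-FRET; 665/620 nm ratio normalized to 10 uM reference […] (positive) and DMSO (negative). EC50 from 4-parameter fit.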

Row | SMILES | EC50
1 | O=c1[nH]ncc(O[C@H]2CCC[C@@H](Cn3ccc4cc(-c5ncc(C(F)F)cn5)c(F)c(F)c4c3=O)C2)c1C(F)(F)F [Example 54, 6-(5-(difluoromethyl)pyrimidin-2-yl)-7,8-difluoro-2-(((1R,3S)-3-((6-oxo-5-(trifluoromethyl)-1,6-dihydropyridazin-4-yl)oxy)cyclohexyl)methyl)isoquinolin-1(2H)-one] | 2.38 nM
2 | CC(C)(O)c1cnc(-c2cc3ccn(C[C@@H]4CCC[C@H](Oc5cn[nH]c(=O)c5C(F)(F)F)C4)c(=O)c3c(F)c2F)nc1 [Example 55, 7,8-difluoro-6-(5-(2-hydroxypropan-2-yl)pyrimidin-2-yl)-2-(((1R,3S)-3-((6-oxo-5-(trifluoromethyl)-1,6-dihydropyridazin-4-yl)oxy)cyclohexyl)methyl)isoquinolin-1(2H)-one] | 1.56 nM
3 | CC(F)(F)c1cnc(-c2cc3ccn(C[C@@H]4CCC[C@H](Oc5cn[nH]c(=O)c5C(F)(F)F)C4)c(=O)c3c(F)c2F)nc1 [Example 56, 6-(5-(1,1-difluoroethyl)pyrimidin-2-yl)-7,8-difluoro-2-(((1R,3S)-3-((6-oxo-5-(trifluoromethyl)-1,6-dihydropyridazin-4-yl)oxy)cyclohexyl)methyl)isoquinolin-1(2H)-one] | 0.915 nM
4 | CC(C)(O)c1cnc(-c2cc3ccn(C[C@@H]4CCC[C@H](Oc5cn[nH]c(=O)c5C(F)(F)F)C4)c(=O)c3cc2F)nc1 [Example 57, 7-fluoro-6-(5-(2-hydroxypropan-2-yl)pyrimidin-2-yl)-2-(((1R,3S)-3-((6-oxo-5-(trifluoromethyl)-1,6-dihydropyridazin-4-yl)oxy)cyclohexyl)methyl)isoquinolin-1(2H)-one] | 1.82 nM
5 | COc1cnc(-c2cc3c(Cl)cn(C[C@@H]4CCC[C@H](Nc5cn[nH]c(=O)c5C(F)(F)F)C4)c(=O)c3cc2F)nc1 [Example 58, 4-chloro-7-fluoro-6-(5-methoxypyrimidin-2-yl)-2-[[(1R,3S)-3-[[6-oxo-5-(trifluoromethyl)-1H-pyridazin-4-yl]amino]cyclohexyl]methyl]isoquinolin-1-one] | 5.91 nM
6 | O=c1[nH]ncc(N[C@H]2CCC[C@@H](Cn3cc(Cl)c4cc(-c5nc6ccccn6n5)c(F)cc4c3=O)C2)c1C(F)(F)F [Example 59, 6-([1,2,4]triazolo[1,5-a]pyridin-2-yl)-4-chloro-7-fluoro-2-(((1R,3S)-3-((6-oxo-5-(trifluoromethyl)-1,6-dihydropyridazin-4-yl)amino)cyclohexyl)methyl)isoquinolin-1(2H)-one] | 2.02 nM
7 | O=c1[nH]ncc(N[C@H]2CCC[C@@H](Cn3cc(Cl)c4cc(-c5ncc(C(F)F)cn5)c(F)cc4c3=O)C2)c1C(F)(F)F [Example 60, 4-chloro-6-(5-(difluoromethyl)pyrimidin-2-yl)-7-fluoro-2-(((1R,3S)-3-((6-oxo-5-(trifluoromethyl)-1,6-dihydropyridazin-4-yl)amino)cyclohexyl)methyl)isoquinolin-1(2H)-one] | 6.23 nM
8 | O=c1[nH]ncc(N[C@H]2CCC[C@@H](Cn3cc(Cl)c4cc(-c5ncc(C(F)F)cn5)c(F)c(F)c4c3=O)C2)c1C(F)(F)F [Example 61] | 1.33 nM
9 | O=c1[nH]ncc(N[C@H]2C[C@@H](O)C[C@@H](Cn3ccc4cc(-c5ncc(C(F)(F)F)cn5)c(F)cc4c3=O)C2)c1C(F)(F)F [Example 62, 7-fluoro-2-[[(1S,3S,5R)-3-hydroxy-5-[[6-oxo-5-(trifluoromethyl)-1H-pyridazin-4-yl]amino]cyclohexyl]methyl]-6-[5-(trifluoromethyl)pyrimidin-2-yl]isoquinolin-1-one] | 90 nM
10 | O=c1[nH]ncc(N[C@H]2CCC[C@@](O)(Cn3ccc4cc(-c5ncc(C(F)(F)F)cn5)c(F)cc4c3=O)C2)c1C(F)(F)F [Example 63, 7-fluoro-2-[[(1S,3S)-1-hydroxy-3-[[6-oxo-5-(trifluoromethyl)-1H-pyridazin-4-yl]amino]cyclohexyl]methyl]-6-[5-(trifluoromethyl)pyrimidin-2-yl]isoquinolin-1-one] | 1.87 nM
11 | O=c1[nH]ncc(N[C@H]2CCO[C@@H](Cn3ccc4cc(-c5nc6ccccn6n5)c(F)cc4c3=O)C2)c1C(F)(F)F [Example 64, 7-fluoro-2-[[(2R,4S)-4-[[6-oxo-5-(trifluoromethyl)-1H-pyridazin-4-yl]amino]tetrahydropyran-2-yl]methyl]-6-([1,2,4]triazolo[1,5-a]pyridin-2-yl)isoquinolin-1-one] | 36.1 nM
12 | O=c1[nH]ncc(N[C@H]2CCO[C@@H](Cn3ccc4cc(-c5nc6ccccn6n5)c(F)c(F)c4c3=O)C2)c1C(F)(F)F [Example 65, 7,8-difluoro-2-[[(2R,4S)-4-[[6-oxo-5-(trifluoromethyl)-1H-pyridazin-4-yl]amino]tetrahydropyran-2-yl]methyl]-6-([1,2,4]triazolo[1,5-a]pyridin-2-yl)isoquinolin-1-one1-one] | 20.3 nM
13 | O=C1c2cc(F)c(-c3ncc(C(F)(F)F)cn3)cc2CCN1C[C@@H]1CCC[C@H](Nc2cn[nH]c(=O)c2C(F)(F)F)C1 [Example 69, 7-fluoro-2-[[(1R,3S)-3-[[6-oxo-5-(trifluoromethyl)-1H-pyridazin-4-yl]amino]cyclohexyl]methyl]-6-[5-(trifluoromethyl)pyrimidin-2-yl]-3,4-dihydroisoquinolin-1-one] | 4.56 nM
14 | COc1cnc(-c2cc3c(cc2F)C(=O)N(C[C@@H]2CCC[C@H](Nc4cn[nH]c(=O)c4C(F)(F)F)C2)CC3)nc1 [Example 70, 7-fluoro-6-(5-methoxypyrimidin-2-yl)-2-(((1R,3S)-3-((6-oxo-5-(trifluoromethyl)-1,6-dihydropyridazin-4-yl)amino)cyclohexyl)methyl)-3,4-dihydroisoquinolin-1(2H)-one] | 11.1 nM
15 | [2H]C([2H])([2H])Oc1cnc(-c2cc3c(cc2F)C(=O)N(C[C@@H]2CCC[C@H](Nc4cn[nH]c(=O)c4C(F)(F)F)C2)CC3)nc1 [Example 71, 7-fluoro-2-[[(1R,3S)-3-[[6-oxo-5-(trifluoromethyl)-1H-pyridazin-4-yl]amino]cyclohexyl]methyl]-6-[5-(trideuteriomethoxy)pyrimidin-2-yl]-3,4-dihydroisoquinolin-1-one] | 7.6 nM
16 | O=C1c2cc(F)c(-c3ncc(C(F)F)cn3)cc2CCN1C[C@@H]1CCC[C@H](Nc2cn[nH]c(=O)c2C(F)(F)F)C1 [Example 72, 6-(5-(difluoromethyl)pyrimidin-2-yl)-7-fluoro-2-(((1R,3S)-3-((6-oxo-5-(trifluoromethyl)-1,6-dihydropyridazin-4-yl)amino)cyclohexyl)methyl)-3,4-dihydroisoquinolin-1(2H)-one] | 3.74 nM
17 | CC(C)(O)c1cnc(-c2cc3c(cc2F)C(=O)N(C[C@@H]2CCC[C@H](Nc4cn[nH]c(=O)c4C(F)(F)F)C2)CC3)nc1 [Example 73, 7-fluoro-6-(5-(2-hydroxypropan-2-yl)pyrimidin-2-yl)-2-(((1R,3S)-3-((6-oxo-5-(trifluoromethyl)-1,6-dihydropyridazin-4-yl)amino)cyclohexyl)methyl)-3,4-dihydroisoquinolin-1(2H)-one] | 7.8 nM
18 | O=C1c2cc(F)c(-c3ncc(C(F)(F)F)cn3)cc2CN1C[C@@H]1CCC[C@H](Nc2cn[nH]c(=O)c2C(F)(F)F)C1 [Example 74, 6-fluoro-2-(((1R,3S)-3-((6-oxo-5-(trifluoromethyl)-1,6-dihydropyridazin-4-yl)amino)cyclohexyl)methyl)-5-(5-(trifluoromethyl)pyrimidin-2-yl)isoindolin-1-one] | 9.03 nM
